Experimental data as given in patent publication US9381208B2, “Structure and use of 5′ phosphate oligonucleotides” (Rheinische Friedrich-Wilhelms-Universität, priority 2006, dated 2016).
{ppp} = triphosphate group

Test system: human primary monocytes
Assay: IFN-α production in human primary monocytes transfected with RNA (ELISA)
Format: cell-based
Settings: for IFN-α-inducing activity conferred by the 5′ 4-nucleotide sequence: adenosine-initiated in vitro transcribed RNA oligonucleotides, FIG. 13; for IFN-α induction (*100%) mean: monocytes from three donors, 36 hours after transfection, normalized to the mean induction level of all oligonucleotides (=100%); for IFN-α production in monocytes: 200 ng RNA transfected, ELISA

Substance	IFN-α-inducing activity conferred by the 5′ 4-nucleotide sequence	IFN-α induction (*100%) mean	IFN-α production in monocytes (24 hours)	reduction in IFN-α induction compared with RNA9.2s-0A (monocytes, 200 ng, 24 hours)
auguggggac acacacacac acacacacac (AUGUGGGGACACACACACACACACACACAC; RNA, 5' {ppp}, backbone not given here) [SEQ ID No. 153]	highest IFN-α-inducing activity	1.15 *100%	–	–
aaaaggggac acacacacac acacacacac (AAAAGGGGACACACACACACACACACACAC; RNA, 5' {ppp}, backbone not given here) [SEQ ID No. 121]	–	0.73 *100%	–	–
auagggggac acacacacac acacacacac (AUAGGGGGACACACACACACACACACACAC; RNA, 5' {ppp}, backbone not given here) [SEQ ID No. 123]	–	0.76 *100%	–	–
5′-PPPGGG AGACAGGUUUUUUUUUUUUUUUUUUUUU-3′ (GGGAGACAGGUUUUUUUUUUUUUUUUUUUUU; RNA, 5' {ppp}, backbone not given here) [tri-poly U]	–	–	equally potent	–
accuggggac acacacacac acacacacac (ACCUGGGGACACACACACACACACACACAC; RNA, 5' {ppp}, backbone not given here) [SEQ ID No. 124]	–	0.76 *100%	–	–
5′-pppGCUUAACCUGUCCUUCAAU-3′ [RNA9.2s-1G]	–	–	–	approximately 25%
5′-PPPGGGAGACAGGCCCCCCCCCCCCCCCCCCCCC-3′ [tri-poly C]	–	–	equally potent	–
aguuggggac acacacacac acacacacac (AGUUGGGGACACACACACACACACACACAC; RNA, 5' {ppp}, backbone not given here) [SEQ ID No. 168]	highest IFN-α-inducing activity	1.32 *100%	–	–
auaaggggac acacacacac acacacacac (AUAAGGGGACACACACACACACACACACAC; RNA, 5' {ppp}, backbone not given here) [SEQ ID No. 127]	–	0.82 *100%	–	–
aagaggggac acacacacac acacacacac (AAGAGGGGACACACACACACACACACACAC; RNA, 5' {ppp}, backbone not given here) [SEQ ID No. 134]	–	0.95 *100%	–	–
agugggggac acacacacac acacacacac (AGUGGGGGACACACACACACACACACACAC; RNA, 5' {ppp}, backbone not given here) [SEQ ID No. 143]	highest IFN-α-inducing activity	1.01 *100%	–	–
aaccggggac acacacacac acacacacac (AACCGGGGACACACACACACACACACACAC; RNA, 5' {ppp}, backbone not given here) [SEQ ID No. 156]	highest IFN-α-inducing activity	1.20 *100%	–	–
acuaggggac acacacacac acacacacac (ACUAGGGGACACACACACACACACACACAC; RNA, 5' {ppp}, backbone not given here) [SEQ ID No. 117]	–	0.62 *100%	–	–
auugggggac acacacacac acacacacac (AUUGGGGGACACACACACACACACACACAC; RNA, 5' {ppp}, backbone not given here) [SEQ ID No. 167]	highest IFN-α-inducing activity	1.31 *100%	–	–
agaaggggac acacacacac acacacacac (AGAAGGGGACACACACACACACACACACAC; RNA, 5' {ppp}, backbone not given here) [SEQ ID No. 165]	highest IFN-α-inducing activity	1.29 *100%	–	–
acccggggac acacacacac acacacacac (DNA ACCCGGGGACACACACACACACACACACAC; chemistry not fully specified) [SEQ ID No. 130]	–	0.89 *100%	–	–
auauggggac acacacacac acacacacac (AUAUGGGGACACACACACACACACACACAC; RNA, 5' {ppp}, backbone not given here) [SEQ ID No. 129]	–	0.89 *100%	–	–
aacaggggac acacacacac acacacacac (AACAGGGGACACACACACACACACACACAC; RNA, 5' {ppp}, backbone not given here) [SEQ ID No. 166]	highest IFN-α-inducing activity	1.30 *100%	–	–
Lipopolysaccharide [LPS, reference compound]	–	–	did not contribute to IFN-α production	–
augcggggac acacacacac acacacacac (AUGCGGGGACACACACACACACACACACAC; RNA, 5' {ppp}, backbone not given here) [SEQ ID No. 159]	highest IFN-α-inducing activity	1.23 *100%	–	–

Substance	IFN-α-inducing activity conferred by the 5′ 4-nucleotide sequence	IFN-α induction (*100%) mean	IFN-α production in monocytes (24 hours)	reduction in IFN-α induction compared with RNA9.2s-0A (monocytes, 200 ng, 24 hours)
aaucggggac acacacacac acacacacac (AAUCGGGGACACACACACACACACACACAC; RNA, 5' {ppp}, backbone not given here) [SEQ ID No. 132]	–	0.94 *100%	–	–
aauaggggac acacacacac acacacacac (AAUAGGGGACACACACACACACACACACAC; RNA, 5' {ppp}, backbone not given here) [SEQ ID No. 112]	–	0.40 *100%	–	–
accgggggac acacacacac acacacacac (ACCGGGGGACACACACACACACACACACAC; RNA, 5' {ppp}, backbone not given here) [SEQ ID No. 122]	–	0.73 *100%	–	–
aaagggggac acacacacac acacacacac (AAAGGGGGACACACACACACACACACACAC; RNA, 5' {ppp}, backbone not given here) [SEQ ID No. 173]	highest IFN-α-inducing activity	1.40 *100%	–	–
aucuggggac acacacacac acacacacac (AUCUGGGGACACACACACACACACACACAC; RNA, 5' {ppp}, backbone not given here) [SEQ ID No. 133]	–	0.94 *100%	–	–
agauggggac acacacacac acacacacac (AGAUGGGGACACACACACACACACACACAC; RNA, 5' {ppp}, backbone not given here) [SEQ ID No. 113]	–	0.48 *100%	–	–
auucggggac acacacacac acacacacac (AUUCGGGGACACACACACACACACACACAC; RNA, 5' {ppp}, backbone not given here) [SEQ ID No. 144]	highest IFN-α-inducing activity	1.03 *100%	–	–
aaguggggac acacacacac acacacacac (AAGUGGGGACACACACACACACACACACAC; RNA, 5' {ppp}, backbone not given here) [SEQ ID No. 174]	highest IFN-α-inducing activity	1.40 *100%	–	–
agguggggac acacacacac acacacacac (AGGUGGGGACACACACACACACACACACAC; RNA, 5' {ppp}, backbone not given here) [SEQ ID No. 155]	highest IFN-α-inducing activity	1.18 *100%	–	–
acauggggac acacacacac acacacacac (ACAUGGGGACACACACACACACACACACAC; RNA, 5' {ppp}, backbone not given here) [SEQ ID No. 148]	highest IFN-α-inducing activity	1.11 *100%	–	–
auacggggac acacacacac acacacacac (AUACGGGGACACACACACACACACACACAC; RNA, 5' {ppp}, backbone not given here) [SEQ ID No. 139]	–	0.99 *100%	–	–
aagcggggac acacacacac acacacacac (AAGCGGGGACACACACACACACACACACAC; RNA, 5' {ppp}, backbone not given here) [SEQ ID No. 157]	highest IFN-α-inducing activity	1.22 *100%	–	–
acggggggac acacacacac acacacacac (ACGGGGGGACACACACACACACACACACAC; RNA, 5' {ppp}, backbone not given here) [SEQ ID No. 145]	highest IFN-α-inducing activity	1.03 *100%	–	–
aacuggggac acacacacac acacacacac (AACUGGGGACACACACACACACACACACAC; RNA, 5' {ppp}, backbone not given here) [SEQ ID No. 163]	highest IFN-α-inducing activity	1.29 *100%	–	–
acugggggac acacacacac acacacacac (ACUGGGGGACACACACACACACACACACAC; RNA, 5' {ppp}, backbone not given here) [SEQ ID No. 152]	highest IFN-α-inducing activity	1.14 *100%	–	–
5′-PPPGGGAGACAGGAAAAAAAAAAAAAAAAAAAAA-3′ [tri-poly A]	–	–	equally potent	–
agacggggac acacacacac acacacacac (AGACGGGGACACACACACACACACACACAC; RNA, 5' {ppp}, backbone not given here) [SEQ ID No. 116]	–	0.62 *100%	–	–
aucaggggac acacacacac acacacacac (AUCAGGGGACACACACACACACACACACAC; RNA, 5' {ppp}, backbone not given here) [SEQ ID No. 160]	highest IFN-α-inducing activity	1.24 *100%	–	–
aguaggggac acacacacac acacacacac (AGUAGGGGACACACACACACACACACACAC; RNA, 5' {ppp}, backbone not given here) [SEQ ID No. 158]	highest IFN-α-inducing activity	1.22 *100%	–	–
aacgggggac acacacacac acacacacac (AACGGGGGACACACACACACACACACACAC; RNA, 5' {ppp}, backbone not given here) [SEQ ID No. 170]	highest IFN-α-inducing activity	1.34 *100%	–	–
